Reference: patent US4696912A, “Stabilized compositions” (priority 1986, dated 1987)
≈ marks a conversion by molar mass, not a printed value. Read-outs that look alike come from different tables or passages of the source.

Columns and labels:
[1] = Stability in aqueous solution (HPLC assay); format: physicochemical; conditions: for remaining at 168 h / remaining at 336 h / remaining at 552 h / remaining at 48 h: aqueous solution, read-out: % CL-1565-A Remaining; for remaining at 168 h: 7 days; for remaining at 336 h: 14 days; for remaining at 48 h: 2 days
Protocol: ^b Solutions prepared by adding sodium ascorbate to solutions of
CL1565-A to yield an equimolar concentration.
(§1) CL-1565-A content was assayed by HPLC using a uBondapak C-18 silica gel column (Waters Assoc.) and 0.05 M pH 6.8 sodium phosphate buffer--acetonitrile (89:11) as the mobile phase, at a flow rate of 2 mL/minute. The retention time of CL-1565-A in this system is approximately 4.7 minutes. Solid samples were reconstituted in 100 mL of water immediately prior to HPLC assay. Solutions of CL-1565-A were diluted to a final concentration of 300 ug/mL with water prior to assay.

[2] = tested on: L1210 Leukemia Cells; assay: In vitro activity of CL-1565-A against L1210 leukemia cells; format: cell-based; conditions: Mus musculus, read-out: ID50 (the source's name)
[3] = tested on: Saccharomyces cervisiae; assay: Antifungal activity, paper disk zone of inhibition; format: cell-based; conditions: 12.7 mm paper disks, 500 ug/ml, overnight at 28° C., read-out: Zone diameter
Protocol: (§2) Paper disks (12.7 mm in diameter) impregnated with an aqueous solution containing 500 ug of CL-1565-A/ml were placed on a layer of agar inoculated with the indicated microorganisms. After incubation overnight at 28° C., the following zones of inhibition were observed.

[4] = tested on: Saccharomyces italicus; assay: Antifungal activity, paper disk zone of inhibition; format: cell-based; conditions: 12.7 mm paper disks, 500 ug/ml, overnight at 28° C.; read-out: Zone diameter
Protocol: as §2

[5] = Stability in solid state form (HPLC assay); format: physicochemical; conditions: for remaining at 168 h / remaining at 504 h / remaining at 840 h: Table 1, solid state; for remaining at 168 h: 1 week; for remaining at 168 h / remaining at 504 h / remaining at 840 h / remaining at 2160 h / remaining at 3600 h / remaining at 6480 h / remaining at 16560 h: read-out: % CL-1565-A Remaining; for remaining at 504 h: 3 weeks; for remaining at 840 h: 5 weeks; for remaining at 2160 h / remaining at 3600 h / remaining at 6480 h / remaining at 16560 h: Table 3, solid form; for remaining at 2160 h: 3 months; for remaining at 3600 h: 5 months; for remaining at 6480 h: 9 months; for remaining at 16560 h: 23 months
Protocol: *Samples prepared by lyophilization of 1.5 mL aliquots of an aqueous
solution containing 15 mg of CL1565-A per ml.
^a Samples prepared by lyophilization of 1.5 mL of an aqueous solutio
containing 15 mg/mL of CL1565-A in 6mL serum vials.
^b Samples prepared by mixing CL1565-A and sodium ascorbate (1:1 mola
ratio) in solution prior to lyophilization.
as §1

[6] = tested on: P388 Lymphatic Leukemia; assay: In vivo antitumor activity against P388 lymphatic leukemia in mice
Text: In Vivo Antitumor Activity of CL-1565-A Against P388 Lymphatic Leukemia in Mice
The test method used is based on that described in Cancer Chemother. Reports 3:1-87 (part 3). 1972.

[7] = Table 2, aqueous solution 5 mg/mL, 5° C.
[8] = Table 2, aqueous solution 5 mg/mL, 25° C.
[9] = Table 2, aqueous solution 15 mg/mL, 5° C.
[10] = Table 2, aqueous solution 15 mg/mL, 25° C.

CC(O)(C=CC1CC=CC(=O)O1)C(CC(O)C=CC=CC=CCO)OP(=O)(O)O (stereo not shown) [CL-1565-A]
remaining at 168 h [1, 7]: 92% | remaining at 336 h [1, 7]: 83% | remaining at 552 h ([1]; Table 2, aqueous solution 5 mg/mL, 5° C., 23 days): 76% | remaining at 168 h [1, 8]: 77% | remaining at 336 h [1, 8]: 63% | remaining at 552 h ([1]; Table 2, aqueous solution 5 mg/mL, 25° C., 23 days): 45% | remaining at 168 h [1, 9]: 81% | remaining at 336 h [1, 9]: 76% | remaining at 552 h ([1]; Table 2, aqueous solution 15 mg/mL, 5° C., 23 days): 66% | remaining at 168 h [1, 10]: 67% | remaining at 336 h [1, 10]: 55% | remaining at 552 h ([1]; Table 2, aqueous solution 15 mg/mL, 25° C., 23 days): 42% | remaining at 168 h ([1]; Table 2, aqueous solution 15 mg/mL, 37° C.): 35% | remaining at 48 h ([1]; Table 4, aqueous solution 15 mg/mL, 5° C.): 90% | remaining at 552 h ([1]; Table 4, aqueous solution 15 mg/mL, 5° C., 23 days): 66% | remaining at 48 h ([1]; Table 4, aqueous solution 15 mg/mL, 25° C.): 87% | remaining at 552 h ([1]; Table 4, aqueous solution 15 mg/mL, 25° C., 23 days): 42% | degraded at 552 h ([1]; water, 23 days, 15 mg/mL in aqueous solution, read-out: decomposition): 48% | IC50 [2]: 0.078 µg/mL (≈ 0.181 µM) | zone of inhibition at 500 µg/mL [3]: 25 mm | zone of inhibition at 500 µg/mL [4]: 17 mm | remaining at 168 h ([5]; 5° C.): 100% | remaining at 504 h ([5]; 5° C.): 100% | remaining at 840 h ([5]; 5° C.): 100% | remaining at 168 h ([5]; 25° C.): 87% | remaining at 504 h ([5]; 25° C.): 77% | remaining at 840 h ([5]; 25° C.): 69% | remaining at 168 h ([5]; 37° C.): 70% | remaining at 504 h ([5]; 37° C.): 26% | remaining at 168 h ([5]; -15° C.): 100% | remaining at 504 h ([5]; -15° C.): 100% | remaining at 840 h ([5]; -15° C.): 100% | remaining at 2160 h ([5]; 5°): 88% | remaining at 3600 h ([5]; 5°): 86% | remaining at 6480 h ([5]; 5°): 79% | remaining at 16560 h ([5]; 5°): 74% | remaining at 2160 h ([5]; 25°): 61% | remaining at 2160 h ([5]; -15°): 100% | remaining at 3600 h ([5]; -15°): 100% | remaining at 6480 h ([5]; -15°): 100% | remaining at 16560 h ([5]; -15°): 100% | degraded at 840 h ([5]; five weeks at 25° C., read-out: decomposition): 31% | T/C × 100 ([6]; 1.1 mg/kg/day, test-1): 170 | T/C × 100 ([6]; 1.1 mg/kg/day, test-2): 139 | T/C × 100 ([6]; 2.1 mg/kg/day, test-1): 173 | T/C × 100 ([6]; 2.1 mg/kg/day, test-2): 157 | T/C × 100 ([6]; 4.3 mg/kg/day, test-1): 170 | T/C × 100 ([6]; 4.3 mg/kg/day, test-2): 172 | T/C × 100 ([6]; 6.3 mg/kg/day, test-3): 142 | T/C × 100 ([6]; 8.5 mg/kg/day, test-1): 256 | T/C × 100 ([6]; 8.5 mg/kg/day, test-2): 209 | T/C × 100 ([6]; 12.5 mg/kg/day, test-3): 150 | T/C × 100 ([6]; 17 mg/kg/day, test-1): 256 | T/C × 100 ([6]; 17 mg/kg/day, test-2): 248 | T/C × 100 ([6]; 25 mg/kg/day, test-3): 174
